From patent US20250041389A1, “ENHANCING ABSORPTION OF DIETARY COMPOUNDS TO PROMOTE HEALTH” (ARIZONA BOARD OF REGENTS ON BEHALF OF THE UNIVERSITY OF …, priority 2023, published 2025)

What was measured:
[1] = tested on: TGF-β signaling in human breast cancer cells; assay: Inhibition of TGF-β signaling in human breast cancer cells; format: cell-based
ovariectomized rats = assay: Bone loss in ovariectomized rats (FDA-approved model for testing osteoporosis treatments); format: in vivo
[2] = tested on: rheumatoid arthritis model; assay: Joint inflammation in a rheumatoid arthritis model; format: in vivo
[3] = tested on: breast cancer bone metastasis models; assay: Osteolysis in breast cancer bone metastasis models; format: in vivo

| Compound | TGF-β signaling [1] | bone loss (ovariectomized rats) | bone-resorbing osteoclasts (ovariectomized rats) | joint inflammation [2] | osteolysis [3] |
| --- | --- | --- | --- | --- | --- |
| COc1cc(/C=C/C(=O)CC(=O)/C=C/c2ccc(O)c(OC)c2)ccc1O [curcumin] | inhibit | prevent | decreasing | prevent | mitigate |
| gingerols |  |  |  | prevent |  |
| shogaols |  |  |  | prevent |  |
